Results taken from patent US6350751B1, “Therapeutic agents” (Pfizer Inc., priority 1999, dated 2002).

How the values were obtained:
[1] = investigation of hydrate and polymorph formation of salts; assay type: physicochemical; details: for formation of crystalline hydrates: under a range of conditions
Excerpt: Hydrated salts can provide particular issues in processing, especially during for example the milling and/or drying stages. It has been disclosed that the tendency of organic molecules to hydrate can be predicted from their molecular structure, “Hydration in organic crystals: prediction from molecular structure”, Desiraju, Gautam R. Sch. Chem., Univ. Hyderabad, Hyderabad, 500 134, India. J. Chem. Soc., Chem. Commun. (1991), Issue 6, 426-8. CODEN: JCCCAT; ISSN: 0022-4936. (EN) CAN 114:237859. […] Several of the salts investigated form hydrates.
(§1) The problem of selecting a pharmaceutically acceptable salt form for 3-ethyl-5-[5-(4-ethylpiperazin-1-ylsulphonyl)-2-(2-methoxyethoxy) pyridin-3-yl]-2-(pyridin-2-yl)methyl-2,6-dihydro-7H-pyrazolo[4,3-d]pyrimidin-7-one has been solved by the surprising finding that the anhydrous para-toluene sulphonate salt of formula (I) meets the above criteria for a pharmaceutically acceptable salt. […] This is particularly surprising as initial predictions would indicate that the toslyate salt would form a hydrate, especially given the fact that the besylate salt and other salts investigated hydrated as predicted.
4-{6-Ethoxy-5-[3-ethyl-6,7-dihydro-7-oxo-2-(2-pyridylmethyl)-2H-pyrazolo[4,3-d]pyrimidin-5-yl]-3-pyridylsulfonyl}1-ethylpiperazine (100 g, 0.16 mol) was heated in 2-butanone/6.0% water (600 mL) to 50° C. yielding a pale yellow solution. The reaction mixture was heated to azetropically distil of 160 ml of solvent to remove water. The distilled solution was warmed to 60° C. and the acid solution of p-toluenesulfonic acid monohydrate (31.11 g, 0.16 mol) dissolved in 2-butanone (140 mL) was added over an hour. During the addition of the acid slow crystallisation was observed. The reaction mixture was slowly cooled from 60° C. to 0-5° C. over three hours, and stirred for a further hour, then filtered off the solid, washed with 2-butanone (200 mL) and dried under vacuum at 50° C. to afford the title compound (116 g, 93.7%) as a white solid. Mpt 240° C. (DMSOd6): 1.20 (6H, m), 2.23 (3H, st), 2.75 (2H, m), 2.97 (2H, q), 3.18 (4H, m), 3.35 (3H, s), 3.55 (2H, m), 3.68 (2H, m), 3.83 (2H, m), 4.59 (2H, m), 5.70 (2H, s), 7.08 (2H, d), 7.20 (1H, d), 7.34 (1H, m), 7.43 (2H, d), 7.80 (1H, m), 8.35 (1H, d), 8.70 (1H, d), 8.74 (1H, d). […] Mpt quoted +/−5° C. preferably +/−2° C. […] Additional experiments have shown that on re-slurrying in a mixture of methyl ethyl ketone and water these further polymorphs can be converted to the compound of Example 1.

[2] = stability of the salt (dosage form, drying and milling, drug substance); assay type: physicochemical
Excerpt: as §1

number of anhydrous polymorphs [1]	further polymorphs detected via differential scanning calorimetry (DSC) ([1]; under certain conditions, convertible to Example 1 form by re-slurrying in methyl ethyl ketone and water)	physical dosage form stability [2]	SMILES	formation of crystalline hydrates [1]	drug substance stability profile [2]	stability during drying and milling processes [2]
at least 5	–	–	CCc1c2nc(-c3cc(S(=O)(=O)N4CCN(CC)CC4)cnc3OCCOC)[nH]c(=O)c2nn1Cc1ccccn1.O=S(=O)(O)c1ccccc1 [besylate salt, besylate salt of 3-ethyl-5-[5-(4-ethylpiperazin-1-ylsulphonyl)-2-(2-methoxyethoxy)pyridin-3-yl]-2-(pyridin-2-yl)methyl-2,6-dihydro-7H-pyrazolo [4,3-d]pyrimidin-7-one, reference compound]	a hydrated polymorph of the besylate salt is indeed formed	–	–
–	at least two further polymorphs	good physical dosage form stability	CCc1c2nc(-c3cc(S(=O)(=O)N4CCN(CC)CC4)cnc3OCCOC)[nH]c(=O)c2nn1Cc1ccccn1 [Example 1]	does not appear to form crystalline hydrates	desirable drug substance stability profile	demonstrates stability during drying and milling processes
